Four molecules from patent US20070259860A1, “MGluR5 modulators V” (AstraZeneca AB, priority 2006, published 2007) can be followed below.

Some results are limits rather than exact numbers.

The target of data set [1] is T1, human mGluR5d (Homo sapiens, UniProt P41594).
T1 construct: expressed in transfected cells
Briefly: FLIPR assay, mGluR5 antagonism in cells expressing human mGluR5d. The format is cell-based. Particulars: intracellular calcium mobilization, read-out: FLIPR hmGluR5d. From the text: The properties of the compounds of the invention can be analyzed using standard assays for pharmacological activity. Examples of glutamate receptor assays are well known in the art as described in for example Aramori et al., Neuron 8:757 (1992), Tanabe et al., Neuron 8:169 (1992), Miller et al., J. Neuroscience 15: 6103 (1995), Balazs, et al., J. Neurochemistry 69:151 (1997). The methodology described in these publications is incorporated herein by reference. Conveniently, the compounds of the invention can be studied by means of an assay (FLIPR) that measures the mobilization of intracellular calcium, [Ca^2+]i in cells expressing mGluR5 or another assay (IP3) that measures inositol phosphate turnover.
Cells expressing human mGluR5d as described in WO97/05252 are seeded at a density of 100,000 cells per well on collagen coated clear bottom 96-well plates with black sides and experiments are done 24 h following seeding. All assays are done in a buffer containing 127 mM NaCl, 5 mM KCl, 2 mM MgCl2, 0.7 mM NaH2PO4, 2 mM CaCl2, 0.422 mg/ml NaHCO3, 2.4 mg/ml HEPES, 1.8 mg/ml glucose and 1 mg/ml BSA Fraction IV (pH 7.4). Cell cultures in the 96-well plates are loaded for 60 minutes in the above mentioned buffer containing 4 μM of the acetoxymethyl ester form of the fluorescent calcium indicator fluo-3 (Molecular Probes, Eugene, Oreg.) in 0.01% pluronic acid (a proprietary, non-ionic surfactant polyol—CAS Number 9003-11-6). Following the loading period the fluo-3 buffer is removed and replaced with fresh assay buffer. FLIPR experiments are done using a laser setting of 0.800 W and a 0.4 second CCD camera shutter speed with excitation and emission wavelengths of 488 nm and 562 nm, respectively. Each experiment is initiated with 160 μl of buffer present in each well of the cell plate. A 40 μl addition from the antagonist plate was followed by a 50 μL addition from the agonist plate. A 90 second interval separates the antagonist and agonist additions. The fluorescence signal is sampled 50 times at 1 second intervals followed by 3 samples at 5 second intervals immediately after each of the two additions. Responses are measured as the difference between the peak height of the response to agonist, less the background fluorescence within the sample period. IC50 determinations are made using a linear least squares fitting program.

In data set [2] the target is hERG-encoded potassium channel (Homo sapiens, UniProt Q12809). Briefly: hERG IonWorks. Format: cell-based.
hERG-encoded potassium channel, sequence (Q12809 whole entry): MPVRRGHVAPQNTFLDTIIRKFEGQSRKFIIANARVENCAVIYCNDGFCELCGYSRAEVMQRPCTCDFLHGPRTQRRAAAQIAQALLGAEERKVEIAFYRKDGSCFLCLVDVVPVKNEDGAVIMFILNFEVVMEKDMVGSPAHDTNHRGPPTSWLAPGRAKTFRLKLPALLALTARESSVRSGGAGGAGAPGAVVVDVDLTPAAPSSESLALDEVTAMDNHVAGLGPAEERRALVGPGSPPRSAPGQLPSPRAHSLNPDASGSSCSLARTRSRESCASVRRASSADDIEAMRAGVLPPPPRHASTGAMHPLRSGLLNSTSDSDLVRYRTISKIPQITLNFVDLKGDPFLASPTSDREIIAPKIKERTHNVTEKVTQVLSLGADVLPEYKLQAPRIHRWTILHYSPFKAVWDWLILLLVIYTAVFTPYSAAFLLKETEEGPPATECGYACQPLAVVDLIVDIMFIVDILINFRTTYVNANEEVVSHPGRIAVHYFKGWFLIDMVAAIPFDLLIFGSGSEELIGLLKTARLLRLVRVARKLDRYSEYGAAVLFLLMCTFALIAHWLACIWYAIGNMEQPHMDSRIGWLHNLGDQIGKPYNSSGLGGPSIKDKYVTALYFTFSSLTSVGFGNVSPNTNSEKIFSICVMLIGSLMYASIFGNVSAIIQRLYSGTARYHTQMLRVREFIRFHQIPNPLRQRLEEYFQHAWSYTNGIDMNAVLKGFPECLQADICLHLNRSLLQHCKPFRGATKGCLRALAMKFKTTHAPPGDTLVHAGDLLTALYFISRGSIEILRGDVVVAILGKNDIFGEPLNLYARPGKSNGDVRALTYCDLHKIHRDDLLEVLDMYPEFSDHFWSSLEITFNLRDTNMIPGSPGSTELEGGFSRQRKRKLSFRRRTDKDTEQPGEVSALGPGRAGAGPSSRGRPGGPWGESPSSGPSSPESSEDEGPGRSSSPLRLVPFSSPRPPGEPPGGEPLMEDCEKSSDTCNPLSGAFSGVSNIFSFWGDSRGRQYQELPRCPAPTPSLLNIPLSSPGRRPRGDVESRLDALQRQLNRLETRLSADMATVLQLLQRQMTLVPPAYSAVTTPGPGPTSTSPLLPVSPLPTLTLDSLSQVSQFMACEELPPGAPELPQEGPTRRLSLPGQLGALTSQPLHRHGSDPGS
Data set [3] is described as follows: In vitro stability in human liver microsomes (CLint). Particulars: pH 7.4, 0.5 mg/mL protein, 1.0 μmol/L compound, NADPH. The format is in vitro ADME. The method, then:
Rat liver microsomes are prepared from Sprague-Dawley rats liver samples. Human liver microsomes are either prepared from human liver samples or acquired from BD Gentest. The compounds are incubated at 37° C. at a total microsome protein concentration of 0.5 mg/mL in a 0.1 mol/L potassium phosphate buffer at pH 7.4, in the presence of the cofactor, NADPH (1.0 mmol/L). The initial concentration of compound is 1.0 μmol/L. Samples are taken for analysis at 5 time points, 0, 7, 15, 20 and 30 minutes after the start of the incubation. The enzymatic activity in the collected sample is immediately stopped by adding a 3.5 times volume of acetonitrile. The concentration of compound remaining in each of the collected samples is determined by means of LC-MS. The elimination rate constant (k) of the mGluR5 inhibitor is calculated as the slope of the plot of In[mGluR5 inhibitor] against incubation time (minutes). The elimination rate constant is then used to calculate the half-life (T ½) of the mGluR5 inhibitor, which is subsequently used to calculate the intrinsic clearance (CLint) of the mGluR5 inhibitor in liver microsomes as:
CLint.=(ln2×incubation volume)/(T½×protein concentration)=μl/min/mg
(Liver microsomes are a subcellular fraction often used to study metabolism.)

The nature of data set [4]: Determination of brain to plasma ratio in rat. Format: in vivo. As to conditions: brain and plasma, female Sprague Dawley rats, read-out: Brain/Plasma Ratio of compound in Rat. The method, then:
Brain to plasma ratios are estimated in female Sprague Dawley rats. The compound is dissolved in water or another appropriate vehicle. For determination of brain to plasma ratio the compound is administrated as a subcutaneous, or an intravenous bolus injection, or an intravenous infusion, or an oral administration. At a predetermined time point after the administration a blood sample is taken with cardiac puncture. The rat is terminated by cutting the heart open, and the brain is immediately retained. The blood samples are collected in heparinized tubes and centrifuged within 30 minutes, in order to separate the plasma from the blood cells. The plasma is transferred to 96-well plates and stored at −20° C. until analysis. The brains are divided in half, and each half is placed in a pre-tarred tube and stored at −20° C. until analysis. Prior to the analysis, the brain samples are thawed and 3 ml/g brain tissue of distilled water is added to the tubes. The brain samples are sonicated in an ice bath until the samples are homogenized. Both brain and plasma samples are precipitated with acetonitrile. After centrifugation, the supernatant is diluted with 0.2% formic acid. Analysis is performed on a short reversed-phase HPLC column with rapid gradient elution and MSMS detection using a triple quadrupole instrument with electrospray ionisation and Selected Reaction Monitoring (SRM) acquisition. Liquid-liquid extraction may be used as an alternative sample clean-up. The samples are extracted, by shaking, to an organic solvent after addition of a suitable buffer. An aliquot of the organic layer is transferred to a new vial and evaporated to dryness under a stream of nitrogen. After reconstitution of the residuals the samples are ready for injection onto the HPLC column.

T1 sequence (P41594 21-942 isoform P41594-3 limits assumed): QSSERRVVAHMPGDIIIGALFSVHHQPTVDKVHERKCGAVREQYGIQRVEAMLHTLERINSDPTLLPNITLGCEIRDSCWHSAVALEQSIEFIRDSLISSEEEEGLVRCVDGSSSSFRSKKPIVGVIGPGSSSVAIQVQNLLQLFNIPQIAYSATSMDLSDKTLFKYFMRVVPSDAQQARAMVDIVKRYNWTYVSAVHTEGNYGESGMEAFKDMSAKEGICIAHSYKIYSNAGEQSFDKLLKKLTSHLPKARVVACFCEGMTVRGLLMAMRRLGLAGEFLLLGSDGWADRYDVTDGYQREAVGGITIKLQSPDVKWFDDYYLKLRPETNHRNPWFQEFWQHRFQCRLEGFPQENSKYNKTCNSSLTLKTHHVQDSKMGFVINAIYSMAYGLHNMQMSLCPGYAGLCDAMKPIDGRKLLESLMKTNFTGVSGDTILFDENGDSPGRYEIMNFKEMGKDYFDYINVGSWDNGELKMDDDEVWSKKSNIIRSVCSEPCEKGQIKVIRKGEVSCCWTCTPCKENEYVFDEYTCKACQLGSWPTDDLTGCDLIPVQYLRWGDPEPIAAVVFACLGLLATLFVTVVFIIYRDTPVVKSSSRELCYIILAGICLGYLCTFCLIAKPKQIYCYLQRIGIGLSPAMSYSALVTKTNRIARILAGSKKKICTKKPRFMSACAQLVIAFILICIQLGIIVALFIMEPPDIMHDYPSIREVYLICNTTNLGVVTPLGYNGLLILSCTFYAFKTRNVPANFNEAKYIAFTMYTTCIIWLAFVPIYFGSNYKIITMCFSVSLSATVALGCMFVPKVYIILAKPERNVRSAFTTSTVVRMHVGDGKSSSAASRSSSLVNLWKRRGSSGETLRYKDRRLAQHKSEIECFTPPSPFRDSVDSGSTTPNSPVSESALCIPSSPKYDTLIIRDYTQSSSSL

As usually defined, the microsomal CLint is the capacity of the preparation to metabolise the compound, expressed as a volume cleared per time. `C[C@H](c1cc(-c2cccc(Cl)c2)on1)N1CCCn2c(-c3cn[nH]c(=O)c3)nnc21` [Example 59.3, 5-(8-{1-[5-(3-Chloro-phenyl)-isoxazol-3-yl]-ethyl}-5,6,7,8-tetrahydro-[1,2,4]triazolo[4,3-a]pyrimidin-3-yl)-2H-pyridazin-3-one]: the IC50 in data set [1] is 34 nM. In addition, the “hERG IonWorks” value in data set [2] was determined as 15 µM. The microsomal CLint at 1 μmol/L in data set [3] is less than 12 µL/min/mg.
In the case of `Cc1cccc(-n2nnc(CN3CCCn4c(-c5cccnc5)nnc43)n2)c1` [Example 35.1, 3-Pyridin-3-yl-8-(2-m-tolyl-2H-tetrazol-5-ylmethyl)-5,6,7,8-tetrahydro-[1,2,4]triazolo[4,3-a]pyrimidine], the IC50 in data set [1] is 37 nM. Further, the “hERG IonWorks” value in data set [2] stood at 26 µM. For the same molecule, the Kp in data set [4] amounted to 0.005. Moreover, the microsomal CLint at 1 μmol/L in data set [3] was less than 12 µL/min/mg.
Consider `Clc1cccc(-c2nc(CN3CCCn4c(-c5cccnc5)nnc43)no2)c1` [Example 35.2, 8-{[5-(3-chlorophenyl)-1,2,4-oxadiazol-3-yl]methyl}-3-pyridin-3-yl-5,6,7,8-tetrahydro[1,2,4]triazolo[4,3-a]pyrimidine], for which, in data set [1], the IC50 amounted to 52 nM. In addition, the Kp in data set [4] amounted to 0.05.
Regarding `Clc1cccc(-c2nc(CN3CCCn4c(-c5cncnc5)nnc43)no2)c1` [Example 35.17, 8-[5-(3-Chloro-phenyl)-[1,2,4]oxadiazol-3-ylmethyl]-3-pyrimidin-5-yl-5,6,7,8-tetrahydro-[1,2,4]triazolo[4,3-a]pyrimidine], the IC50 in data set [1] came to 44 nM. In addition, the “hERG IonWorks” value in data set [2] is 22 µM. Further, the Kp in data set [4] came out at 0.11. In data set [3], the microsomal CLint at 1 μmol/L was found to be 14 µL/min/mg.
